Measurements taken from ChEMBL document CHEMBL1201862, “PubChem BioAssay data set” (2004).
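Growth conditions: 96-well plates. Treatment: test compound, 48 hours, 5 concentrations. Analysis: linear interpolation between bracketing concentrations; unreached endpoints set to highest concentration. Here, GI50 denotes the concentration required for 50% inhibition of growth.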 Calls of active or inactive are those of the source. Rule as the data show it: active = GI50 up to about 1.1 µM and inactive = higher.

Assays:
Test in all cases: NCI anticancer screen, dose series, 48 h
HOP-18 = tested on: HOP-18
SNB-78 = tested on: SNB-78
RXF 631 = tested on: RXF 631
DMS-273 = tested on: DMS-273
M19-MEL = tested on: M19-MEL
DLD-1 = tested on: DLD-1
DMS-114 = tested on: DMS-114
KM-20L2 = tested on: KM-20L2

| SMILES | GI50 (HOP-18) | GI50 (SNB-78) | GI50 (RXF 631) | GI50 (DMS-273) | GI50 (M19-MEL) | GI50 (DLD-1) | GI50 (DMS-114) | GI50 (KM-20L2) |
| --- | --- | --- | --- | --- | --- | --- | --- | --- |
| CC1CCC[P+](Cc2ccccc2)(c2ccccc2)CC1 (configuration not stated) | 0.078 µM (active) | 48.3 µM (inactive) | > 100 µM (inactive) | 33.6 µM (inactive) | 27.6 µM (inactive) | > 100 µM (inactive) | 18.5 µM (inactive) | 50.6 µM (inactive) |
| CCN(CC)c1ccc2c(c1)Oc1ccc(N(CC)CC)cc1C21Oc2ccccc2-c2c1c1ccccc1n2CC (configuration not stated) | 0.614 µM (active) | 7.36 µM (inactive) | 6.1 µM (inactive) | 3.4 µM (inactive) |  | 3.48 µM (inactive) | 0.506 µM (active) | 0.875 µM (active) |
| COC1OC(CO)C(O)C1N (configuration not stated) | > 100 µM (inactive) | > 100 µM (inactive) | > 100 µM (inactive) |  |  | > 100 µM (inactive) | > 100 µM (inactive) | > 100 µM (inactive) |
| COc1cc2c(c(OC)c1OC)-c1ccc(SC)c(=O)cc1C(CC(=O)Oc1cccc([N+](=O)[O-])c1)C2 (configuration not stated) | > 100 µM (inactive) | 0.481 µM (active) | 0.502 µM (active) | 0.364 µM (active) | 0.458 µM (active) | 0.933 µM (active) | 0.312 µM (active) | 0.585 µM (active) |
| NNC(=O)N/N=C1\C(=O)N(c2nccs2)C(=O)C(=O)C1c1nc2ccccc2s1 (configuration not stated) | 7.19 µM (inactive) | > 100 µM (inactive) | > 100 µM (inactive) | > 100 µM (inactive) | > 100 µM (inactive) | > 100 µM (inactive) | > 100 µM (inactive) | > 100 µM (inactive) |
| Cc1c(Cl)cccc1NC(=O)C(=O)C(C(=O)c1ccccc1-c1ccccc1)C1OC(=O)c2ccccc21 (configuration not stated) |  | 22.2 µM (inactive) | 23.7 µM (inactive) | 24.4 µM (inactive) | 15.1 µM (inactive) | 22.8 µM (inactive) | 16 µM (inactive) | 23.7 µM (inactive) |
| CN1CCC(O)C(CNC23CC4CC(CC(C4)C2)C3)C1 (configuration not stated) |  | > 100 µM (inactive) | > 100 µM (inactive) | > 100 µM (inactive) | > 100 µM (inactive) | > 100 µM (inactive) | > 100 µM (inactive) | 59 µM (inactive) |
| Cc1cc(N(CCC#N)CCC#N)ccc1/C=C1N=C(/C=C\c2ccccc2)N(c2ccc(C(=O)O)cc2)C\1=O | > 100 µM (inactive) | > 100 µM (inactive) | > 100 µM (inactive) |  | > 100 µM (inactive) | > 100 µM (inactive) | > 100 µM (inactive) | > 100 µM (inactive) |
| [C-]#[N+]C(C)(C)C[C@H]1CC(C)C2CCC(C)C3([N+]#[C-])CCC(=C)C1[C@H]23 (some centres not stated) | 0.046 µM (active) | 0.249 µM (active) | 1.86 µM (inactive) | 0.286 µM (active) | 1.5 µM (inactive) | 0.269 µM (active) |  | 5.36 µM (inactive) |
| COc1ccc(/C=C/c2cc(OC)c(OC)c(OC)c2)cc1 |  | 17.8 µM (inactive) | 3.73 µM (inactive) | 2.8 µM (inactive) | 9.95 µM (inactive) | 0.897 µM (active) | 27 µM (inactive) | 2.34 µM (inactive) |
